Assay results reported in publication PMC4457358, “Structure–activity studies in the development of a hydrazone based inhibitor of adipose-triglyceride lipase (ATGL)” (Bioorganic & Medicinal Chemistry, 2015).
Entries after “also recorded” stand apart in the source; their conditions may differ.

How the values were obtained:
[1] = target: T1, murine ATGL (Mus musculus, UniProt Q8BJ56); assay: Triglyceride hydrolase activity assay with COS7-cell lysate overexpressing recombinant murine ATGL, radiolabelled triolein substrate; format: biochemical; settings: for inhibition at 200 µM: 1 h, ATGL-inhibition efficiency at 200 μM inhibitor, read-out: I200 (%);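 for all read-outs here: radioactivity from the triolein substrate quantified by liquid scintillation counting after phase separation, reflecting triglyceride hydrolase activity of murine ATGL in lysates of transfected COS-7 cells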
T1 construct: expressed in transfected cells; host or cells: COS-7 (ATCC CRL-1651), transient transfection with Metafectene; crude lysate after 1000 x g spin
T1 sequence (Q8BJ56 1-486): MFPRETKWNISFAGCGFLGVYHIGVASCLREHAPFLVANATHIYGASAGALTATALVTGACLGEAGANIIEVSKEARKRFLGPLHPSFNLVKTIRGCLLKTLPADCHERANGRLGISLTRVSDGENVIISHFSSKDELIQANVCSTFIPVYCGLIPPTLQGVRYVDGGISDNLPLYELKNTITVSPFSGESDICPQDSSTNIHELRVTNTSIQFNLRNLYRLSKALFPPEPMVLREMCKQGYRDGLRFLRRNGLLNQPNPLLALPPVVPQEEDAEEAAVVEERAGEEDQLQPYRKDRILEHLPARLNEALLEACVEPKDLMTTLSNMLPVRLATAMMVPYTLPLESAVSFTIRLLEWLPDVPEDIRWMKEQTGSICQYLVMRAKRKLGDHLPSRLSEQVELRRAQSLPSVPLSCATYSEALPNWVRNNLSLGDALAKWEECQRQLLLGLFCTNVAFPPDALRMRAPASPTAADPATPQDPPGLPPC
Protocol: All synthesized test compounds were screened for their efficiency to inhibit ATGL activity in vitro in an assay using radiolabelled triolein as substrate.[20] As ATGL cannot be purified, the assays were performed with COS7-cell lysates from cells overexpressing recombinant murine ATGL. For the determination of the IC50-value inhibitors were administered with increasing concentrations to the enzyme and its substrate. To determine the ATGL-inhibition efficiency at 200 μM (I200), 200 μM inhibitor was administered to the enzyme and its substrate.
For the determination of TG hydrolase activity cell lysates of COS-7 cells overexpressing recombinant murine ATGL were used. Therefore, monkey embryonic kidney cells (Cos-7; ATCC CRL-1651) were cultivated in Dulbeccos modified eagles medium (DMEM, GIBCO, Invitrogen Corp., Carlsbad, CA), containing 10% fetal calf serum (FCS, Sigma–Aldrich) and antibiotics (100 IU/mL penicillin and 100 μg/mL streptomycin) at standard conditions (37 °C, 5% CO2, 95% humidified atmosphere). Cells were transfected with 1 μg DNA complexed to Metafectene (Biontex GmbH, Munich, Germany) in serum free DMEM. After 4 h the medium was replaced by DMEM supplemented with 10% FCS. For the preparation of cell lysates, cells were washed with 1× phosphate buffered saline, collected using a cell scraper, and disrupted in buffer A (0.25 M sucrose, 1 mM EDTA, 1 mM dithiothreitol, 20 μg/mL leupeptine, 2 μg/mL antipain, 1 μg/mL pepstatin, pH 7.0) by sonication (Virsonic 475, Virtis, Gardiner, NJ). Nuclei and unbroken cells were removed by centrifugation (1000×g, 4 °C, for 10 min). Protein concentration of the cell lysates were determined by Bio-Rad protein assay according to the manufacturer’s protocol (Bio-Rad 785, Bio-Rad Laboratories, Munich, Germany), using BSA as standard.
The triolein (TO) substrate was prepared as described. […] In brief, 330 μM triolein (40,000 cpm/nmol) (GE Healthcare) was emulsified with 45 μM phosphatidylcholine/phosphatidylinositol (3:1) (Sigma) in 100 mM potassium phosphate buffer (pH 7.0) by sonication (Virsonic 475, Virtis) and was adjusted to 5% (w/v) fatty acid free bovine serum albumin (BSA, Sigma). 100 μL (20 μg protein) cell lysate or 2 μl purified recombinant LPL (Sigma–Aldrich) were incubated with 100 μL TO substrate in the presence or in the absence of inhibitors in a water bath for 1 h at 37 °C. After incubation, the reaction was terminated by adding 3.25 mL of methanol/chloroform/heptane (10:9:7) and 1 mL of 0.1 M potassium carbonate, 0.1 M boric acid (pH 10.5). After centrifugation (800 g, 15 min), the radioactivity in 1 mL of the upper phase was determined by liquid scintillation counting.

[2] = test system: WAT (white adipose tissue) organ cultures; assay: Lipolysis of isolated WAT organ cultures of wild-type, ATGL-ko and HSL-ko mice (FA release); format: cell-based; settings: for FA release (lipolysis): 0, 10, 100, 200 µM inhibitor, fat pads of wt, ATGL-ko, HSL-ko mice; for selectivity between ATGL and HSL: lipolysis similarly decreased in ATGL and HSL deficient adipose tissue
Description: As the hydrazone moiety is regarded as a problematic molecular group due to its metabolic instability resulting in toxic side products,[12] we prepared compound 8 which can be regarded as a variant of 1a missing one nitrogen atom (Scheme 5). […] Taken together these efforts have shown that the hydrazone moiety is an essential element of the biological activity of the hit compound 1a and could not be replaced by the most obvious structural isosteres. In order to further characterize our hit compound 1a and best inhibitor 1h, these compounds were tested for ATGL- and HSL-selectivity by the determination of lipolysis in WAT (white adipose tissue) organ cultures of wild-type, ATGL-ko, and HSL-ko mice. […]
µM Inhibitor µM Inhibitor […]
(§1) (also on this page, place not known: µmol glycerol/h*mg protein nmol FFA/ml/min nmol FFA/h*mg nmol FFA/h*mg) […]
(§2) Lipolysis of isolated WAT organ cultures - Gonadal fat pads of wild-type, ATGL deficient (ATGL-ko), and HSL deficient (HSL-ko) mice were surgically removed and washed several times with PBS.
(§3) Tissue pieces (~15 mg) were preincubated in DMEM containing 0, 10, 100, and 200 µM inhibitors for 8 h at C37°C, 5% CO2, 95 % humidified atmosphere. Thereafter, the medium was replaced by DMEM containing 2 % BSA (fatty acid-free) and 0, 10, 100, and 200 µM inhibitors, and incubated for another 60 min at 37°C. Then, aliquots of the medium were removed and analyzed for FA and glycerol content using commercial kits (HR Series NEFA-HR(2), WAKO Diagnostics, Neuss, Germany; Sigma, St.
Louis, MO). For protein determinations, fat pads were washed extensively with PBS and lysed in 0.3 […]
U. et al. Monoglyceride lipase deficiency in mice impairs lipolysis and attenuates diet-induced insulin

[3] = target: T2, monoglyceride lipase (MGL) (Mus musculus, UniProt O35678); assay: MG hydrolase activity with recombinant purified mMGL; format: biochemical; settings: 100 µM compound
T2 sequence (O35678 1-303): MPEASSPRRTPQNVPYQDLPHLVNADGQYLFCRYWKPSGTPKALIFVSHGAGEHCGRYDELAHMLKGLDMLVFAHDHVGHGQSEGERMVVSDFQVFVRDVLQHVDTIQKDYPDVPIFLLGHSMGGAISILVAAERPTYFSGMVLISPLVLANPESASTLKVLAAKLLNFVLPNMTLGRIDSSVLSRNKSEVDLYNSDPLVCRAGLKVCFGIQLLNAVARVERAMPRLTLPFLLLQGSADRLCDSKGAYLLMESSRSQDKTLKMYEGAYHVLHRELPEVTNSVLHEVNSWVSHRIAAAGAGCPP
Protocol: (§4) Structure-activity studies in the development of a hydrazone based inhibitor of adipose-triglyceride lipase (ATGL)
(§5) Nicole Mayer, Martina Schweiger, Michaela-Christina Melcher, Christian Fledelius, Rudolf Zechner, Robert Zimmermann and Rolf Breinbauer […]
(§6) µM Inhibitor µM Inhibitor
(§7) Fig. S1: Selectivity tests of 1a and 1h with white adipose tissue fat pads of wt, ATGL-ko, and […]
Fig S2. LPL (left) and Monoglyceride hydrolase (MGH) (right) activities in the absence or presence of 100 µM compound 1h.
as §1, §2
Tissue pieces (~15 mg) were preincubated in DMEM containing 0, 10, 100, and 200 µM inhibitors for 8 h at C37°C, 5% CO2, 95 % humidified atmosphere. […] Then, aliquots of the medium were removed and analyzed for FA and glycerol content using commercial kits (HR Series NEFA-HR(2), WAKO Diagnostics, Neuss, Germany; Sigma, St. […]
viability assays, cells were seeded at an initial density of […] cells per well in 12-well plates and cultured under standard conditions for 24 hours. […] After solubilization for 10 min at room temperature absorbance was measured at 540 nm. […]

[4] = test system: lipoprotein lipase; assay: LPL activity with purified recombinant LPL and triolein substrate; format: biochemical; settings: 100 µM compound
Protocol: The triolein (TO) substrate was prepared as described. In brief, 330 μM triolein (40,000 cpm/nmol) (GE Healthcare) was emulsified with 45 μM phosphatidylcholine/phosphatidylinositol (3:1) (Sigma) in 100 mM potassium phosphate buffer (pH 7.0) by sonication (Virsonic 475, Virtis) and was adjusted to 5% (w/v) fatty acid free bovine serum albumin (BSA, Sigma). 100 μL (20 μg protein) cell lysate or 2 μl purified recombinant LPL (Sigma–Aldrich) were incubated with 100 μL TO substrate in the presence or in the absence of inhibitors in a water bath for 1 h at 37 °C. After incubation, the reaction was terminated by adding 3.25 mL of methanol/chloroform/heptane (10:9:7) and 1 mL of 0.1 M potassium carbonate, 0.1 M boric acid (pH 10.5). After centrifugation (800 g, 15 min), the radioactivity in 1 mL of the upper phase was determined by liquid scintillation counting.
as §4, §5, §6, §7
Fig S2. LPL (left) and Monoglyceride hydrolase (MGH) (right) activities in the absence or presence of 100 µM compound 1h. […]

[5] = test system: AML-12 mouse hepatocytes cells; assay: Tox 4 toxicity test (neutral red viability); format: cell-based; settings: 1, 10, 100, 200 µM inhibitor
Protocol: Fig. S3: Toxicity test of inhibitor 1h using Tox 4-test with AML-12 mouse hepatocytes cells […]
as §2, §3
Louis, MO). […]
viability assays, cells were seeded at an initial density of […] cells per well in 12-well plates and cultured under standard conditions for 24 hours. […] After solubilization for 10 min at room temperature absorbance was measured at 540 nm.
Determination of MG hydrolase activity. Monoacylglycerol hydrolase activities were determined using recombinant, purified mMGL and rac-1-(3)-oleoylglycerol as substrate as described (Taschler, U. et al. Monoglyceride lipase deficiency in mice impairs lipolysis and attenuates diet-induced insulin

[6] = COS7-cell lysate overexpressing murine ATGL

Row | inhibition at 200 µM [1] | melting point | SMILES | also measured
1 | 94% | 183 to 184 °C | Oc1ccc(/C=N/N2CCN(c3ccccc3)CC2)c(O)c1 [Compound 1h, (E)-4-(4-Phenylpiperazin-1-ylimino)methylbenzene-1,3-diol] | IC50 [1, 6]: 10 µM; FA release (lipolysis) [2]: dose dependent reduction of FA release; selectivity between ATGL and HSL [2]: no selectivity; also recorded: limited specificity; inhibition of monoglyceride lipase (MGL) [3]: does not inhibit; inhibition of lipoprotein lipase [4]: does not inhibit; toxicity (Tox 4 toxicity test) [5]: toxic; also recorded: intrinsic toxicity
2 | 64% | 125 to 129 °C | C(=N\N1CCN(c2ccccc2)CC1)/c1ccc2c(c1)OCO2 [Compound 1x, (E)-N-(Benzo[d][1,3]dioxol-5-ylmethylen)-4-phenylpiperazin-1-amine] | 
3 | 48% | 225 to 228 °C | Oc1ccc(/C=N/N2CCN(Cc3ccccc3)CC2)c(O)c1 [Compound 3d, (E)-4-((4-Benzylpiperazin-1-ylimino)methyl)benzene-1,3-diol] | 
4 | 57% | 94 to 96 °C | O=C(Oc1ccc(F)c(F)c1)N1CCN(c2ccccc2)CC1 [Compound 14, 3,4-Difluorophenyl-4-phenylpiperazin-1-carboxylate] | IC50 [1, 6]: 110 µM
5 | 27% | 186 to 187 °C | C(=N\N1CCN(c2ccccc2)CC1)/c1ccc2c(c1)OCCO2 [Compound 1y, (E)-N-((2,3-Dihydrobenzol[b][1,4]dioxin-6-yl)methylen)-4-phenylpiperazin-1-amine] | 
6 | 16% | 320 to 330 °C (dec.) | O=c1[nH]c2ccc(/C=N/N3CCN(c4ccccc4)CC3)cc2[nH]1 [Compound 1z, (E)-5-((4-Phenylpiperazin-1-ylimino)methyl)-1H-benzo[d]imidazol-2(3H)-one] | 
7 | 25% | 247 to 249 °C (dec.) | Oc1ccc(/C=N/N2CCN(C3CCCCC3)CC2)c(O)c1 [Compound 3f, (E)-4-((4-Cyclohexylpiperazin-1-ylimino)methyl)benzene-1,3-diol] | 
8 | 5% | 190 °C (dec.) | CN(C)c1ccc(/C=N/N2CCN(c3ccccc3)CC2)cc1 [Compound 1u, (E)-N-(4-(Dimethylamino)benzylidene)-4-phenylpiperazin-1-amine] | 
9 | 60% | 156 to 158 °C | C(=N\N1CCN(c2ccccc2)CC1)/c1ccncc1 [Compound 2g, (E)-4-Phenyl-N-(pyridine-4-ylmethylen)piperazin-1-amine] | biological activity against ATGL (in words) [1, 6]: moderate activity
10 | 56% | 180 °C (dec.) | COc1ccc(/C=N/N2CCN(c3ccccc3)CC2)cc1O [Compound 1c, (E)-2-Methoxy-5-((4-phenylpiperazin-1-ylimino)methyl)phenol] | 

Row | SMILES | inhibition at 200 µM [1] | melting point | also measured
11 | Oc1ccc(/C=N/N2CCN(c3ccccc3)CC2)cc1O [Compound 1a, (E)-4-((4-Phenylpiperazin-1-ylimino)methyl)benzene-1,2-diol] | 69% | 180 °C | IC50 [1, 6]: 110 µM; FA release (lipolysis) [2]: dose dependent reduction of FA release; selectivity between ATGL and HSL [2]: no selectivity
